Experimental data published in patent US6339042B1, “Herbicidal N-cyclohexadienyl heteroaryloxyacetamides” (American Cyanamid Co., priority 1999, dated 2002).

What was measured:
Conditions in all cases: three weeks after treatment
Echinochloa crus-galli [1] = assay: Pre-emergence herbicidal evaluation, ECHCG; assay type: in vivo
Source text: (§1) The treated pots are then placed on greenhouse benches, watered and cared for in accordance with conventional greenhouse procedures.

Hordeum vulgare [2] = assay: Post-emergence herbicidal evaluation, HORVW
Amaranthus tuberculatus [3] = assay: Post-emergence herbicidal evaluation, AMATA; assay type: in vivo
Alopecurus myosuroides [4] = assay: Pre-emergence herbicidal evaluation, ALOMY; assay type: in vivo
Source text: as §1

Oryza sativum [5] = assay: Post-emergence herbicidal evaluation, ORYSA
Lolium perenne [6] = assay: Pre-emergence herbicidal evaluation, LOLPE; assay type: in vivo
Source text: as §1

Triticum aestivum [7] = assay: Post-emergence herbicidal evaluation, TRZAW
Setaria viridis [8] = assay: Pre-emergence herbicidal evaluation, SETVI; assay type: in vivo
Source text: as §1

Hordeum vulgare [9] = assay: Pre-emergence herbicidal evaluation, HORVW; assay type: in vivo
Source text: as §1

Triticum aestivum [10] = assay: Pre-emergence herbicidal evaluation, TRZAW; assay type: in vivo
Source text: as §1

Lolium perenne [11] = assay: Post-emergence herbicidal evaluation, LOLPE
Glycine max [12] = assay: Pre-emergence herbicidal evaluation, GLXMA; assay type: in vivo
Source text: as §1

Setaria viridis [13] = assay: Post-emergence herbicidal evaluation, SETVI
Amaranthus tuberculatus [14] = assay: Pre-emergence herbicidal evaluation, AMATA; assay type: in vivo
Source text: as §1

Apera spica venti [15] = assay: Pre-emergence herbicidal evaluation, APESV; assay type: in vivo
Source text: as §1

Galium aparine [16] = assay: Post-emergence herbicidal evaluation, GALAP
Alopecurus myosuroides [17] = assay: Post-emergence herbicidal evaluation, ALOMY
Echinochloa crus-galli [18] = assay: Post-emergence herbicidal evaluation, ECHCG
Glycine max [19] = assay: Post-emergence herbicidal evaluation, GLXMA
Galium aparine [20] = assay: Pre-emergence herbicidal evaluation, GALAP; assay type: in vivo
Source text: as §1

Zea mays [21] = assay: Post-emergence herbicidal evaluation, ZEAMX
Experimental: Each pot is examined three weeks after treatment and phytotoxicity is assessed according to the rating system set forth below.
These acetone solutions are diluted with water and the resulting formulations applied at dosage levels equivalent of about 0.4 to 0.1 kg per hectare of test compound per pot. After spraying the plants are placed on greenhouse benches and are cared for in the usual manner, commensurate with conventional greenhouse practices.

Oryza sativum [22] = assay: Pre-emergence herbicidal evaluation, ORYSA; assay type: in vivo
Source text: as §1

Zea mays [23] = assay: Pre-emergence herbicidal evaluation, ZEAMX; assay type: in vivo
Source text: as §1

Apera spica venti [24] = assay: Post-emergence herbicidal evaluation, APESV

SMILES: CC1=CC(N(C(=O)COc2nc3ccccc3o2)C(C)C)=CC(C)(C)C1 [Example 17]
- phytotoxicity rating ECHCG (Echinochloa crus-galli [1]; 0.100 kg/ha): 4 (4 - Injury)
- phytotoxicity rating ECHCG (Echinochloa crus-galli [1]; 0.200 kg/ha): 6 (6 - Herbicidal effect)
- phytotoxicity rating ECHCG (Echinochloa crus-galli [1]; 0.400 kg/ha): 7 (7 - Good herbicidal effect)
- phytotoxicity rating ECHCG (Echinochloa crus-galli [1]; 0.800 kg/ha): 9 (9 - Complete kill)
- phytotoxicity rating HORVW (Hordeum vulgare [2]; 0.100 kg/ha): 0 (0 - No effect)
- phytotoxicity rating HORVW (Hordeum vulgare [2]; 0.200 kg/ha): 0 (0 - No effect)
- phytotoxicity rating HORVW (Hordeum vulgare [2]; 0.400 kg/ha): 0 (0 - No effect)
- phytotoxicity rating AMATA (Amaranthus tuberculatus [3]; 0.100 kg/ha): 3 (3 - Moderate effect)
- phytotoxicity rating AMATA (Amaranthus tuberculatus [3]; 0.200 kg/ha): 4 (4 - Injury)
- phytotoxicity rating AMATA (Amaranthus tuberculatus [3]; 0.400 kg/ha): 5 (5 - Definite injury)
- phytotoxicity rating ALOMY (Alopecurus myosuroides [4]; 0.100 kg/ha): 3 (3 - Moderate effect)
- phytotoxicity rating ALOMY (Alopecurus myosuroides [4]; 0.200 kg/ha): 6 (6 - Herbicidal effect)
- phytotoxicity rating ALOMY (Alopecurus myosuroides [4]; 0.400 kg/ha): 6 (6 - Herbicidal effect)
- phytotoxicity rating ALOMY (Alopecurus myosuroides [4]; 0.800 kg/ha): 9 (9 - Complete kill)
- phytotoxicity rating ORYSA (Oryza sativum [5]; 0.100 kg/ha): 0 (0 - No effect)
- phytotoxicity rating ORYSA (Oryza sativum [5]; 0.200 kg/ha): 3 (3 - Moderate effect)
- phytotoxicity rating ORYSA (Oryza sativum [5]; 0.400 kg/ha): 4 (4 - Injury)
- phytotoxicity rating LOLPE (Lolium perenne [6]; 0.100 kg/ha): 5 (5 - Definite injury)
- phytotoxicity rating LOLPE (Lolium perenne [6]; 0.200 kg/ha): 9 (9 - Complete kill)
- phytotoxicity rating LOLPE (Lolium perenne [6]; 0.400 kg/ha): 9 (9 - Complete kill)
- phytotoxicity rating LOLPE (Lolium perenne [6]; 0.800 kg/ha): 9 (9 - Complete kill)
- phytotoxicity rating TRZAW (Triticum aestivum [7]; 0.100 kg/ha): 0 (0 - No effect)
- phytotoxicity rating TRZAW (Triticum aestivum [7]; 0.200 kg/ha): 1 (1 - Trace effect)
- phytotoxicity rating TRZAW (Triticum aestivum [7]; 0.400 kg/ha): 2 (2 - Slight effect)
- phytotoxicity rating SETVI (Setaria viridis [8]; 0.100 kg/ha): 3 (3 - Moderate effect)
- phytotoxicity rating SETVI (Setaria viridis [8]; 0.200 kg/ha): 5 (5 - Definite injury)
- phytotoxicity rating SETVI (Setaria viridis [8]; 0.400 kg/ha): 8 (8 - Approaching complete kill)
- phytotoxicity rating SETVI (Setaria viridis [8]; 0.800 kg/ha): 8 (8 - Approaching complete kill)
- phytotoxicity rating HORVW (Hordeum vulgare [9]; 0.100 kg/ha): 1 (1 - Trace effect)
- phytotoxicity rating HORVW (Hordeum vulgare [9]; 0.200 kg/ha): 2 (2 - Slight effect)
- phytotoxicity rating HORVW (Hordeum vulgare [9]; 0.400 kg/ha): 2 (2 - Slight effect)
- phytotoxicity rating HORVW (Hordeum vulgare [9]; 0.800 kg/ha): 4 (4 - Injury)
- phytotoxicity rating TRZAW (Triticum aestivum [10]; 0.100 kg/ha): 1 (1 - Trace effect)
- phytotoxicity rating TRZAW (Triticum aestivum [10]; 0.200 kg/ha): 2 (2 - Slight effect)
- phytotoxicity rating TRZAW (Triticum aestivum [10]; 0.400 kg/ha): 2 (2 - Slight effect)
- phytotoxicity rating TRZAW (Triticum aestivum [10]; 0.800 kg/ha): 4 (4 - Injury)
- phytotoxicity rating LOLPE (Lolium perenne [11]; 0.100 kg/ha): 4 (4 - Injury)
- phytotoxicity rating LOLPE (Lolium perenne [11]; 0.200 kg/ha): 7 (7 - Good herbicidal effect)
- phytotoxicity rating LOLPE (Lolium perenne [11]; 0.400 kg/ha): 8 (8 - Approaching complete kill)
- phytotoxicity rating GLXMA (Glycine max [12]; 0.100 kg/ha): 0 (0 - No effect)
- phytotoxicity rating GLXMA (Glycine max [12]; 0.200 kg/ha): 0 (0 - No effect)
- phytotoxicity rating GLXMA (Glycine max [12]; 0.400 kg/ha): 0 (0 - No effect)
- phytotoxicity rating GLXMA (Glycine max [12]; 0.800 kg/ha): 1 (1 - Trace effect)
- phytotoxicity rating SETVI (Setaria viridis [13]; 0.100 kg/ha): 5 (5 - Definite injury)
- phytotoxicity rating SETVI (Setaria viridis [13]; 0.200 kg/ha): 6 (6 - Herbicidal effect)
- phytotoxicity rating SETVI (Setaria viridis [13]; 0.400 kg/ha): 6 (6 - Herbicidal effect)
- phytotoxicity rating AMATA (Amaranthus tuberculatus [14]; 0.100 kg/ha): 4 (4 - Injury)
- phytotoxicity rating AMATA (Amaranthus tuberculatus [14]; 0.200 kg/ha): 5 (5 - Definite injury)
- phytotoxicity rating AMATA (Amaranthus tuberculatus [14]; 0.400 kg/ha): 5 (5 - Definite injury)
- phytotoxicity rating AMATA (Amaranthus tuberculatus [14]; 0.800 kg/ha): 9 (9 - Complete kill)
- phytotoxicity rating APESV (Apera spica venti [15]; 0.100 kg/ha): 7 (7 - Good herbicidal effect)
- phytotoxicity rating APESV (Apera spica venti [15]; 0.200 kg/ha): 8 (8 - Approaching complete kill)
- phytotoxicity rating APESV (Apera spica venti [15]; 0.400 kg/ha): 9 (9 - Complete kill)
- phytotoxicity rating APESV (Apera spica venti [15]; 0.800 kg/ha): 9 (9 - Complete kill)
- phytotoxicity rating GALAP (Galium aparine [16]; 0.100 kg/ha): 1 (1 - Trace effect)
- phytotoxicity rating GALAP (Galium aparine [16]; 0.200 kg/ha): 3 (3 - Moderate effect)
- phytotoxicity rating GALAP (Galium aparine [16]; 0.400 kg/ha): 4 (4 - Injury)
- phytotoxicity rating ALOMY (Alopecurus myosuroides [17]; 0.100 kg/ha): 3 (3 - Moderate effect)
- phytotoxicity rating ALOMY (Alopecurus myosuroides [17]; 0.200 kg/ha): 6 (6 - Herbicidal effect)
- phytotoxicity rating ALOMY (Alopecurus myosuroides [17]; 0.400 kg/ha): 8 (8 - Approaching complete kill)
- phytotoxicity rating ECHCG (Echinochloa crus-galli [18]; 0.100 kg/ha): 3 (3 - Moderate effect)
- phytotoxicity rating ECHCG (Echinochloa crus-galli [18]; 0.200 kg/ha): 4 (4 - Injury)
- phytotoxicity rating ECHCG (Echinochloa crus-galli [18]; 0.400 kg/ha): 6 (6 - Herbicidal effect)
- phytotoxicity rating GLXMA (Glycine max [19]; 0.100 kg/ha): 3 (3 - Moderate effect)
- phytotoxicity rating GLXMA (Glycine max [19]; 0.200 kg/ha): 3 (3 - Moderate effect)
- phytotoxicity rating GLXMA (Glycine max [19]; 0.400 kg/ha): 6 (6 - Herbicidal effect)
- phytotoxicity rating GALAP (Galium aparine [20]; 0.100 kg/ha): 0 (0 - No effect)
- phytotoxicity rating GALAP (Galium aparine [20]; 0.200 kg/ha): 0 (0 - No effect)
- phytotoxicity rating GALAP (Galium aparine [20]; 0.400 kg/ha): 0 (0 - No effect)
- phytotoxicity rating GALAP (Galium aparine [20]; 0.800 kg/ha): 0 (0 - No effect)
- phytotoxicity rating ZEAMX (Zea mays [21]; 0.100 kg/ha): 0 (0 - No effect)
- phytotoxicity rating ZEAMX (Zea mays [21]; 0.200 kg/ha): 0 (0 - No effect)
- phytotoxicity rating ZEAMX (Zea mays [21]; 0.400 kg/ha): 1 (1 - Trace effect)
- phytotoxicity rating ORYSA (Oryza sativum [22]; 0.100 kg/ha): 2 (2 - Slight effect)
- phytotoxicity rating ORYSA (Oryza sativum [22]; 0.200 kg/ha): 3 (3 - Moderate effect)
- phytotoxicity rating ORYSA (Oryza sativum [22]; 0.400 kg/ha): 4 (4 - Injury)
- phytotoxicity rating ORYSA (Oryza sativum [22]; 0.800 kg/ha): 4 (4 - Injury)
- phytotoxicity rating ZEAMX (Zea mays [23]; 0.100 kg/ha): 0 (0 - No effect)
- phytotoxicity rating ZEAMX (Zea mays [23]; 0.200 kg/ha): 0 (0 - No effect)
- phytotoxicity rating ZEAMX (Zea mays [23]; 0.400 kg/ha): 1 (1 - Trace effect)
- phytotoxicity rating ZEAMX (Zea mays [23]; 0.800 kg/ha): 3 (3 - Moderate effect)
- phytotoxicity rating APESV (Apera spica venti [24]; 0.100 kg/ha): 6 (6 - Herbicidal effect)
- phytotoxicity rating APESV (Apera spica venti [24]; 0.200 kg/ha): 8 (8 - Approaching complete kill)
- phytotoxicity rating APESV (Apera spica venti [24]; 0.400 kg/ha): 8 (8 - Approaching complete kill)
